Measured values published in US12201610B2, “Compositions comprising aticaprant” (Janssen Pharmaceuticals, Inc., priority 2022, dated 2025).

Assay: GVS characterization of Form III
Format: physicochemical
Conditions: at 90% RH

GVS max uptake: 0.4% max uptake at 90% RH
Structure (SMILES): Cc1cc(C)cc([C@@H]2CCCN2Cc2ccc(Oc3ccc(C(N)=O)cc3F)cc2)c1 [Form III]
